Inconclusive results and toxic doses are left out. No stated cut-off is given here; in the data, active means T/C of 150% or more; inactive means T/C below 125%.
System: L1210 leukemia ip in BDF1 mice, survival T/C
Assay: NCI In Vivo Anticancer Drug Screen. Data for tumor model L1210 Leukemia (intraperitoneal) in B6D2F1 (BDF1) mice
Settings: endpoint: mean survival time, higher = longer survival
Method in brief: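 Ratio derived from survival: compound-dosed mice over vehicle-dosed mice, all bearing a transplantable tumor.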

[1] = dose: 100.0 mg/kg/injection, schedule: Q04DX003 (ip), vehicle: saline with Tween-80
[2] = dose: 200.0 mg/kg/injection, schedule: Q04DX003 (ip), vehicle: saline with Tween-80
[3] = dose: 400.0 mg/kg/injection, schedule: Q04DX003 (ip), vehicle: saline with Tween-80
[4] = dose: 100.0 mg/kg/injection, schedule: Q01DX001 (ip), vehicle: saline
[5] = dose: 200.0 mg/kg/injection, schedule: Q01DX001 (ip), vehicle: saline
[6] = dose: 400.0 mg/kg/injection, schedule: Q01DX001 (ip), vehicle: saline

Measured: T/C

O=C(Nc1ccccc1C(F)(F)F)c1cccc(Cl)c1
inactive: dose: 50.0 mg/kg/injection, schedule: Q01DX009 (ip), vehicle: saline + alcohol 89 % of control | dose: 100.0 mg/kg/injection, schedule: Q01DX009 (ip), vehicle: saline + alcohol 101 % of control | dose: 200.0 mg/kg/injection, schedule: Q01DX009 (ip), vehicle: saline + alcohol 94 % of control

O=C(NCCCl)NCC1CCCO1 (stereo unspecified)
inactive: dose: 50.0 mg/kg/injection, schedule: Q04DX003 (ip), vehicle: Klucel (hydroxypropylcellulose) (HPC) 103 % of control | dose: 100.0 mg/kg/injection, schedule: Q04DX003 (ip), vehicle: Klucel (hydroxypropylcellulose) (HPC) 103 % of control | dose: 200.0 mg/kg/injection, schedule: Q04DX003 (ip), vehicle: Klucel (hydroxypropylcellulose) (HPC) 103 % of control | dose: 400.0 mg/kg/injection, schedule: Q04DX003 (ip), vehicle: Klucel (hydroxypropylcellulose) (HPC) 90 % of control

O=S1(=O)/C(=C\C2CCCCC2)c2c1c(-c1ccccc1)c1ccccc1c2-c1ccccc1
inactive: dose: 50.0 mg/kg/injection, schedule: Q01DX001 (ip), vehicle: carboxymethylcellulose (CMC) 86 % of control | dose: 200.0 mg/kg/injection, schedule: Q01DX001 (ip), vehicle: carboxymethylcellulose (CMC) 92 % of control | dose: 400.0 mg/kg/injection, schedule: Q01DX001 (ip), vehicle: carboxymethylcellulose (CMC) 89 % of control

O=C(N/N=C/c1cccnc1)c1cccc([N+](=O)[O-])c1
inactive: dose: 100.0 mg/kg/injection, schedule: Q01DX009 (ip), vehicle: Klucel (hydroxypropylcellulose) (HPC) 89 % of control | dose: 200.0 mg/kg/injection, schedule: Q01DX009 (ip), vehicle: Klucel (hydroxypropylcellulose) (HPC) 95 % of control | dose: 400.0 mg/kg/injection, schedule: Q01DX009 (ip), vehicle: Klucel (hydroxypropylcellulose) (HPC) 101 % of control

Clc1ccc(/C=N\Nc2ccccc2)c(Cl)c1
inactive: dose: 100.0 mg/kg/injection, schedule: Q01DX001 (ip), vehicle: Klucel (hydroxypropylcellulose) (HPC) 103 % of control | dose: 200.0 mg/kg/injection, schedule: Q01DX001 (ip), vehicle: Klucel (hydroxypropylcellulose) (HPC) 101 % of control | dose: 400.0 mg/kg/injection, schedule: Q01DX001 (ip), vehicle: Klucel (hydroxypropylcellulose) (HPC) 109 % of control

Nc1ncc(Br)cn1
inactive: [1] 105 % of control | [2] 100 % of control | [3] 102 % of control

C[n+]1ccccc1/C=C/c1cccc(O)c1
inactive: dose: 9.38 mg/kg/injection, schedule: Q01DX001 (ip), vehicle: other 103 % of control | dose: 18.75 mg/kg/injection, schedule: Q01DX001 (ip), vehicle: other 100 % of control

Cc1ccc(C[N+](C)(C)C)cc1
inactive: dose: 9.38 mg/kg/injection, schedule: Q01DX001 (ip), vehicle: saline 103 % of control | dose: 18.75 mg/kg/injection, schedule: Q01DX001 (ip), vehicle: saline 100 % of control | dose: 37.5 mg/kg/injection, schedule: Q01DX001 (ip), vehicle: saline 100 % of control

C#CCCCCCCl
inactive: dose: 100.0 mg/kg/injection, schedule: Q01DX001 (ip), vehicle: other 95 % of control | dose: 200.0 mg/kg/injection, schedule: Q01DX001 (ip), vehicle: other 102 % of control

Cc1ccc(/C=N/NC(N)=S)nn1
inactive: dose: 100.0 mg/kg/injection, schedule: Q04DX002 (ip), vehicle: saline 117 % of control | dose: 200.0 mg/kg/injection, schedule: Q04DX002 (ip), vehicle: saline 98 % of control

O=C1CC2CCCC(C1)N2Cc1ccccc1
inactive: [4] 92 % of control | [5] 97 % of control | [6] 101 % of control

O=C(O)C1CCCCC1C(=O)NCc1ccccc1Cl (stereo unspecified)
inactive: dose: 100.0 mg/kg/injection, schedule: Q04DX002 (ip), vehicle: Klucel (hydroxypropylcellulose) (HPC) 100 % of control | dose: 200.0 mg/kg/injection, schedule: Q04DX002 (ip), vehicle: Klucel (hydroxypropylcellulose) (HPC) 100 % of control | dose: 400.0 mg/kg/injection, schedule: Q04DX002 (ip), vehicle: Klucel (hydroxypropylcellulose) (HPC) 96 % of control

CCCCCCC(=O)Nc1cccc(OC(=O)NC)c1
inactive: [1] 98 % of control | [2] 96 % of control | [3] 88 % of control

NNc1ccc(Cl)c(S(=O)(=O)O)c1
inactive: dose: 100.0 mg/kg/injection, schedule: Q01DX009 (ip), vehicle: saline 100 % of control | dose: 100.0 mg/kg/injection, schedule: Q04DX003 (ip), vehicle: alcohol 98 % of control | dose: 200.0 mg/kg/injection, schedule: Q01DX009 (ip), vehicle: saline 100 % of control | dose: 200.0 mg/kg/injection, schedule: Q04DX003 (ip), vehicle: alcohol 104 % of control | dose: 400.0 mg/kg/injection, schedule: Q01DX009 (ip), vehicle: saline 103 % of control | dose: 400.0 mg/kg/injection, schedule: Q04DX003 (ip), vehicle: alcohol 106 % of control

CC1NNC(=O)C1c1ccc([N+](=O)[O-])cc1 (stereo unspecified)
inactive: [4] 94 % of control | [5] 94 % of control | [6] 95 % of control

From PubChem BioAssay AID248 (DTP/NCI, 2004)
